US20240287525A1, “COMPOSITIONS AND METHODS FOR TREATING CANCER” (OSLO UNIVERSITETSSYKEHUS HF, priority 2021, published 2024)

Tested on: MTHFD2
Assay: MTHFD2 knockdown efficiency by qPCR and Western analyses after siRNA transfection
Assay type: cell-based
Details: LNCaP cells, mRNA by qRT-PCR
Method: FIG. 1: MTHFD2 knockdown inhibits growth of PCa cells, PDX-derived organoids, and tumor xenografts. A. MTHFD2 knockdown efficiency was determined in LNCaP and DU145 cells that were transfected with either scrambled siRNA or two independent MTHFD2-specific siRNAs for 48 hours by both qPCR and Western analyses. B. LNCaP, VCaP, or 22Rv1 cells transfected with control or MTHFD2-specific siRNAs were cultured for the indicated times, and cell numbers were determined by trypan blue staining. *p<0.01. MTHFD2 knockdown hinders colony (C-D) and prostatosphere (E) formation ability of PCa cells. F. Viability of normal prostate cells is not affected by MTHFD2 knockdown. G. MTHFD2 expression and knockdown efficiency in various LuCaP organoids were assessed by Western analysis.
FIG. 4: A. LNCaP cells were transfected with MTHFD2 (siMTHFD2 #1) or non-targeting control siRNAs. Cells were cultured for the indicated time points, collected, and MTHFD2 mRNA levels were determined by qRT-PCR. […] B. LNCaP and DU145 cells were reverse transfected with either control siRNA or two independent siRNAs against MTHFD2. After 48 hours, relative cell viability was determined using the CCK8 assay. C. Bar graph showing quantification of PDX derived organoids representing the number of organoids per field in FIG. 1H.
Briefly, cells were reverse transfected using Lipofectamine RNAiMAX transfection reagent (ThermoFisher) and plated into 96-well or 6-well plates. Cells in 6-well plates were cultured for the indicated times, trypsinized, stained with trypan blue, and counted using a hemocytometer. […] Cells plated into the 96-well plates were cultured for 48 hrs and cell viability was measured using the CCK-8 kit (Bimake, Munich, Germany).
RNA extraction, reverse transcription and quantitative polymerase chain reaction (qPCR) were performed as described previously (Sheng X, Arnoldussen Y J, Storm M. Tesikova M, Nenseth H Z, Zhao S, et al. Divergent androgen regulation of unfolded protein response pathways drives prostate cancer. EMBO Mol Med 2015; 7:788-801). […]

siMTHFD2-2: MTHFD2-specific siRNA CAGGCCAGCTCAAGAAGCAAA; location 1140; positive control in Example 3 (chain 2 CAGGCCAGCUCAAGAAGCAAA; chemistry not given here; one strand in two spellings)
MTHFD2 knockdown, maximal (72 hours post-transfection): ~80%
return of MTHFD2 to basal levels (time course after transfection): ≤ 12 days
time MTHFD2 remained significantly downregulated (time course after transfection): more than one week
